≈ marks a conversion by molar mass, not a printed value.

Settings in the first series: not given
Broadly, the logP is the decadic logarithm of the partition coefficient of the neutral form, usually between octanol and water. The low end stands for a more hydrophilic compound, the high end for a more lipophilic compound. On to `COc1ccc(C(=CC(=O)N2CCOCC2)c2ccc(Cl)cc2)cc1OC`, for which the logP turned out to be 2.68.

Turning to `CC(C)C1CCC(Cc2ccc(Cl)cc2)C1(O)Cn1cncn1` (centres undefined), the logP came to 4.21.

Compound `CCCCCOC(=O)COc1cc(N2C(=O)C3=C(CCCC3)C2=O)c(F)cc1Cl` came in with a logP of 4.99.

Consider `CN(C)C(=O)SCCCCOc1ccccc1`, for which the logP worked out at 3.28.

Compound `CCOP(=S)(NC(C)CC)Oc1cc(C)ccc1[N+](=O)[O-]` (centres undefined) came in with a logP of 4.62.

Consider `Clc1ccccc1-c1nnc(-c2ccccc2Cl)nn1`, for which the logP was 3.1.

Compound `CCCOC(=O)c1ccc(C(=O)OCCC)nc1` had a logP of 3.57.

Turning to `CCCCCCCCn1sccc1=O`, the logP was found to be 2.45.

In the case of `CCOc1ccc(C(C)(C)COCc2cccc(Oc3ccccc3)c2)cc1`, the logP worked out at 7.05.

Take `COc1ccc(C(O)(c2cncnc2)C2CC2)cc1` (centres undefined): the logP was 1.91.

Compound `CC1(C)CNC(=NN=C(/C=C/c2ccc(C(F)(F)F)cc2)/C=C/c2ccc(C(F)(F)F)cc2)NC1` came in with a logP of 2.31.

`COCCOc1ccccc1S(=O)(=O)N=C(O)N=c1nc(OC)[nH]c(OC)n1` yielded a logP of 2.04.

As for `CCCSP(=O)(OCC)SCCC`, the logP amounted to 3.59.

Take `C=CCN(CC=C)C(=O)C(Cl)Cl`: the log partition coefficient (logP) amounted to 1.84.

Consider `CCN(CC)C(=O)SCc1ccccc1Cl`, for which the logP was 3.43.

Compound `CNc1nc(NC(C)C)nc(SC)n1` returned a logP of 2.38.

`C=C(C)CN(CC)c1c([N+](=O)[O-])cc(C(F)(F)F)cc1[N+](=O)[O-]`: the logP came to 5.11.

`CN(C)C(=O)Nc1cc(C(C)(C)C)on1` showed a lipophilicity (logP) of 1.98.

Compound `CC(C)(C)c1ccc(CSc2cnn(C(C)(C)C)c(=O)c2Cl)cc1` displayed a logP of 6.37.

In turn, `CCCCC(CC)CN1C(=O)C2C3C=CC(C3)C2C1=O` (centres undefined) came in with a logP of 3.7.

Compound `CCOC(=O)CCCOc1ccc(Cl)cc1C` came in with a logP of 4.26.

`Fc1ccc(C2(Cn3cncn3)OC2c2ccccc2Cl)cc1` (centres undefined) had a logP of 3.44.

`O=C(NC(=O)c1c(F)cccc1F)Nc1ccc(CO/N=C(/c2ccc(Cl)cc2)C2CC2)cc1`: the logP was found to be 6.97.

Consider `Cc1nc(N(C)C)nc(OC(=O)N(C)C)c1C`, for which the log partition coefficient (logP) came out at 1.7.

The compound `CCOP(=S)(OCC)OP(=S)(OCC)OCC` showed a logP of 3.99.

With `CCOCCOC(=O)C(C)Oc1ccc(Oc2ncc(C(F)(F)F)cc2Cl)cc1` (centres undefined), the logP turned out to be 4.33.

In turn, `CCCCOC(=O)C(C)Oc1ccc(Oc2ccc(C(F)(F)F)cn2)cc1` (centres undefined) displayed a logP of 4.5.

Usually solubility stands for how much of the substance goes into solution per volume. Low values mean a poorly soluble substance, high ones a readily soluble substance. For the compound `S=C([S-])NCCNC(=S)[S-].[Na+].[Na+]`, the solubility was 780000 µM.

Take `O=C(NC(=O)c1c(F)cccc1F)Nc1ccc(Cl)c(Oc2ncc(C(F)(F)F)cc2Cl)c1`: the logP is 5.1.

`C#CCC1=C(C)C(OC(=O)C2C(C=C(C)C)C2(C)C)CC1=O` (centres undefined) had a log partition coefficient (logP) of 4.49.

Consider `N#Cc1c[nH]cc1-c1cccc(Cl)c1Cl`, for which the logP worked out at 3.86.

Compound `O=C1c2ccccc2C(=O)C1C(=O)C(c1ccccc1)c1ccccc1` came in with a solubility of 0.881 µM (≈ 0.3 µg/mL).

`CC(Oc1ccc(Oc2cnc3cc(Cl)ccc3n2)cc1)C(=O)OCC1CCCO1` (centres undefined): the lipophilicity (logP) came out at 4.32.

For the compound `CCOC(=O)CCN(SN(C)C(=O)Oc1cccc2c1OC(C)(C)C2)C(C)C`, the logP was 4.3.

Consider `O=C(O)COc1ccc(Cl)cc1CO`, for which the solubility was determined as 9230 µM (≈ 2000 µg/mL).

The compound `CCOC(=O)Cn1c(=O)sc2cccc(Cl)c21` gave a logP of 2.5.

Turning to `CC1(C)CON(Cc2ccccc2Cl)C1=O`, the logP worked out at 2.5.

`O=C1C(Cl)C(CCl)CN1c1cccc(C(F)(F)F)c1` (centres undefined) registered a logP of 3.36.

Take `CC1COc2ccccc2N1C(=O)C(Cl)Cl` (centres undefined): the logP amounted to 2.7.

Consider `N#CC(=NOCC1OCCO1)c1ccccc1`, for which the log partition coefficient (logP) was 2.76.

In the case of `CC1=C(C)S(=O)(=O)CCS1(=O)=O`, the logP was -0.17.

`c1coc(-c2nc3ccccc3[nH]2)c1`: the log partition coefficient (logP) came out at 2.67.

`O=C1C(Cl)=C(Cl)C(=O)N1c1ccc(F)cc1`: the logP stood at 2.3.

`COCC(C)N(C(=O)CCl)c1c(C)csc1C` (centres undefined) returned a logP of 2.15.

For the compound `CCCCCCCCSCCO`, the logP was found to be 3.64.

Consider `C=CCNC(=O)CN(CC=C)C(=O)C(Cl)Cl`, for which the logP came to 1.

With `CS(=O)(=O)NC(=O)c1cc(Oc2ccc(C(F)(F)F)cc2Cl)ccc1[N+](=O)[O-]`, the logP was determined as 2.9.

With `Cc1cnc(C2=NC(=O)C(C)(C(C)C)N2)c(C(=O)O)c1` (centres undefined), the logP was 2.47.

`CC(Oc1ccc(Oc2ccc(Cl)cc2Cl)cc1)C(=O)O` (centres undefined) showed a logP of 4.58.

`OC(c1ccc(F)cc1)(c1cncnc1)c1ccccc1Cl` (centres undefined) yielded a logP of 3.18.

As to `CCCCN(CC)C(=O)SCCC`, the logP was found to be 3.83.

Turning to `CC1(C)C(C=C(Cl)Cl)C1C(=O)OC(C#N)c1ccc(F)c(Oc2ccccc2)c1` (centres undefined), the logP worked out at 5.95.

Compound `CCOC(=O)c1cn2nc(OP(=S)(OCC)OCC)cc2nc1C` came in with a logP of 3.8.

`COC(=O)Nc1cccc(OC(=O)Nc2cccc(C)c2)c1` showed a logP of 3.59.

The series is the same for the next values; noted with them: 20 °C.
The compound `O=C1c2ccccc2C(=O)C1C(=O)C(c1ccccc1)c1ccc(Cl)cc1` (centres undefined) showed a solubility of 267 µM (≈ 100 µg/mL).

In the case of `Cc1ccccc1C(=O)Nc1cccc(OC(C)C)c1`, the solubility is 47.2 µM (≈ 12.7 µg/mL).

For `O=C(O)CCCc1c[nH]c2ccccc12`, the solubility was 1230 µM (≈ 250 µg/mL).

Regarding `CCCCCCC(C)OC(=O)COc1nc(F)c(Cl)c(N)c1Cl` (centres undefined), the solubility is 0.245 µM (≈ 0.09 µg/mL).

In turn, `CNC(=O)O/N=C(\C)C(C)S(C)(=O)=O` (centres undefined) came in with a solubility of 940000 µM (≈ 209000 µg/mL).

For the origin of these results see the OPERA property sets (Mansouri et al. 2018).
